These results are taken from patent publication US5716982A, “Retinoids and methods of use of same” (priority 1995, dated 1998).

For data set [1], the system named is bone abnormalities in mouse fetus. Briefly: Bone abnormalities in mouse fetus (anti-teratogenicity). Format: in vivo. Here is the method:
(§1) Female mice were examined by vaginal smear the morning after being caged with male mice, and if sperm or a vaginal plug was discovered, then the mice were determined to be pregnant. The retinoids were administered at the dosage indicated starting on the seventh day of pregnancy and continued once a day for the next ten days. On the 20th day after the female mice were determined to be pregnant, they were sacrificed by cervical dislocation. Both sides of the uterus were checked and the number of living embryos, dead embryos, and absorbed embryos were counted. The living embryos were further examined for bone abnormalities.
After the embryos became transparent, they were dissected and their skeletons were checked by observation under a microscope.

Data set [2] deals with human acute myeloid leukemia (AML), neuroblastoma, teratocarcinoma, melanoma, and rat rhabdomyosarcoma cells. Conditions: Smith et al. 1992; cited from earlier work.
The test system of another data set is fetus absorption in mice. Briefly: Fetus absorption in mice (anti-teratogenicity). The format is in vivo, mouse. Conditions: 15 mg/kg, 15 pregnant mice. As to the method: as §1
In another data set the test system is BEL 7402 cell line. Description: MTT assay in BEL 7402 cells. The format is cell-based. Conditions: Homo sapiens, Bel-7402, 120 h; Bel7402; read-out: MTT ED50. (In general: Tetrazolium dyes change colour on reduction, which living cells bring about.)
The next data set relates to A2780 cell line. Briefly: MTT assay in A2780 cells. The note with it: Homo sapiens, A2780, 120 h; read-out: MTT ED50. Format: cell-based. Here is the method:
(§2) Human cancer cell lines (KB, A2780, MCF-7, HL-60, A549) were used. For a monolayer culture, 0.5 ml of trypsin solution ([…]) was added to the flasks for digestion. Microtiter plates (96 well) were used for the cell culture and 200 μl of cell suspension (1200 tumor cells) were placed in each well and incubated at 37° C. for 24 hours. Following the addition of the test compound, the control and treated flasks were placed in a CO2 incubator for 5 day culture. For the MTT assay, 200 μl of MTT solution (5 mg in 10 ml of phosphate buffer) plus the medium were added and incubated for another 4 hours. Following incubation, the supernatant was discarded and 200 μl of DMSO was added to each well. With a mild agitation the OD values were determined by the MR 700 Elisa at 570 nm (reference wavelength was 450 nm). The ED50 of the compound and tumor cell survival rate [formula] as percent inhibition were calculated.
(§3) The protocols of Examples 14 and 21 were used, for the NBT and MTT assays, respectively.

A further data set relates to HCT-8 cell line. Description: MTT assay in HCT-8 cells. The format is cell-based. The note with it: Homo sapiens, HCT-8, 120 h; read-out: MTT ED50.
Data set [3] deals with Human promyelocytic leukemia HL-60 cells. Briefly: Cell differentiation of HL-60 cells, nitroblue tetrazolium (NBT) reduction. Format: cell-based. Conditions: Homo sapiens; HL-60 (Table 16); read-out: NBT. As to the method:
Human promyelocytic leukemia HL-60 cells were cultured in RPMI-1640 medium supplemented by 10% heat-inactivated calf serum and 100 U/ml of penicillin plus 100 μg/ml of streptomycin. The flasks containing cells and medium were incubated in an incubator with 5% CO2 at 37° C. Log phase cells were seeded into the medium at a concentration of 1.2×10^5to 1.4×10^5 cells per ml and cultured in flasks containing 5 ml of medium. Each group consisted of three flasks. Different concentrations of coumarin-retinoids were added. At intervals following the addition of coumarin-retinoids to the cultures, a small portion of cells was removed and live cells were counted under a light microscope using a dye-exclusionmethod with trypan blue. Cell differentiation was judged in terms of morphology and nitroblue tetrazolium (NBT) reduction.
For a determination of NBT reducing activity, a portion of the coumarin-retinoid-treated cells was removed at intervals following treatment and centrifuged. After centrifugation, 0.5 ml of 0.1% NBT (containing 100 ng TPA) was added to each tube. The contents of the test tubes were then incubated for 1 hour at 37° C. Cell smears were prepared from the cell sediment and stained using the Wright-Giemsa technique. For each smear prepared, 200 cells were isolated for examination under a light microscope with an oil immersion lens. Cells stained with blue-black granules were considered NBT-positive cells. The 50% differentiation or effective concentration (ED50 or EC50) is shown in terms of molar (M) concentration of the […] tested.
as §3

Another data set deals with KB cell line. Briefly: MTT assay in KB cells. Format: cell-based. The note with it: Homo sapiens, 120 h, read-out: MTT ED50. As to the method:
as §2, §3

The conditions of data set [4]: Preuss-Ueberschar et al. 1984; cited from earlier work.
For a further data set, the system named is melanoma cell growth. The note with it: Jing et al. 1992; cited from earlier work.

A value given as a limit tells only on which side of the number the result lay.

With `CC1=C(/C=C/C(C)=C/C=C/C(C)=C/C(=O)O)C(C)(C)CCC1` [All Trans RA, all-trans-retinoic acid, reference compound], in data set [1] (10 mg/kg), the “Delayed Calcification, Occipital number/fetus number” value is 16/16 and the “Delayed Calcification, Sternum number/fetus number” value is given as 16/16. In addition, in data set [1] (15 mg/kg), the “Cleft Palate (%)” value is 48%; the “Delayed Calcification (%), Occipital” value is on record as 96.0%; the “Delayed Calcification (%), Sternum” value is listed as 71.0%. In data set [1] (101 mg/kg (so in the source)), the “Delayed Calcification, Occipital delay/fetus” value was 6/16 and the “Delayed Calcification, Sternum delay/fetus” value was 16/16. In [2], the cell differentiation entry is “induces cell differentiation in some human acute myeloid leukemia (AML), neuroblastoma, teratocarcinoma, melanoma, and rat rhabdomyosarcoma cells”. For the same compound, the “Implanted Number” value in the data set with fetus absorption in mice was found to be 186.

On to `CC1=C(/C=C/C(C)=C/C=C/C(C)=C/C(=O)n2cnc3c(=O)[nH]c(N)nc32)C(C)(C)CCC1` [II-F], for which the IC50 with BEL 7402 cell line, in the data set on A2780 cell line, in the data set on HCT-8 cell line and with KB cell line was above 10 µM in each case. The EC50 in data set [3] is above 10 µM.

Take `O=c1ccc2ccccc2o1` [coumarin]: the teratogenicity result in data set [4] is listed as “not teratogenic”.

As to `O=c1c(-c2ccc(O)cc2)coc2cc(O)ccc12` [diadzein], the melanoma cell growth entry with melanoma cell growth is recorded as “inhibits melanoma cell growth”.
